From patent publication US4678788A, “N-substituted 2-chloro-7-fluoro-10-piperazino-10,11-dihydrodibenzo (B,F) thiepins and acid addition salts thereof” (SPOFA, Spojene Podniky Pro Zdravotnickou Vyrobu, priority 1985, dated 1987)

Columns and labels:
[1] = Rota-rod test in mice (motor coordination); details: mouse, po
rats = assay: Cataleptic activity in rats; details: for cataleptic activity: rats, 50 mg/kg, oral
[2] = test system: apomorphine-induced climbing behavior of mice; assay: Apomorphine-induced climbing behavior of mice; type: in vivo
[3] = test system: dopamine levels in tuberculum olfactorium; assay: Dopamine level in tuberculum olfactorium of the rat brain; type: in vivo; details: 20 mg/kg, in words
[4] = test system: apomorphine-elicited agitation and stereotypes in rats; assay: Antiapomorphine action in rats; type: in vivo; details: for effect on apomorphine-elicited agitation / effect on apomorphine-elicited stereotypes: 20 and 50 mg/kg, by 2 h after administration; for antiapomorphine effect: 50 mg/kg, oral
[5] = test system: apomorphine emesis in dogs; assay: Inhibition of apomorphine emesis in dogs; type: in vivo
[6] = test system: homovanillic acid in tuberculum olfactorium; assay: Homovanillic acid level in tuberculum olfactorium of the rat brain; type: in vivo; details: 3 h after the administration
[7] = Rota-rod test in rats (motor coordination); details: rat, po
[8] = test system: homovanillic acid in corpus striatum; assay: Homovanillic acid level in corpus striatum of the rat brain; type: in vivo
[9] = Acute toxicity in rats (oral); details: rat, in vivo
[10] = target: T1, dopamine receptors in corpus striatum (Rattus norvegicus, UniProt P61169); assay: Inhibition of 3H-spiperone binding, corpus striatum
T1 construct: dopamine receptors in the two brain structures; from tissue; host or cells: rat brain, corpus striatum

[11] = test system: dopamine levels in corpus striatum; assay: Dopamine level in corpus striatum of the rat brain; type: in vivo; details: for dopamine level, striatum: 20 mg/kg, in words
Solubility in water = type: physicochemical
mice = details: mouse, in vivo, po
[12] = test system: spontaneous locomotor activity in mice; assay: Inhibition of spontaneous locomotor activity in mice; type: in vivo; details: for times less active than compound A, inhibition of spontaneous locomotor activity: mice, relative to compound A
in vivo = details: mouse, po
[13] = Overall antidopaminergic / neuroleptic activity and pharmacological profile; details: in words
motility of mice = details: Mus musculus, po, read-out: medium effective dose, motility of mice
[14] = Acute toxicity in mice, intravenous administration; details: mouse, in vivo
Procedure: (§1) The invention further includes 1-(2-chloro-7-fluoro-10, 11-dihydrodibenzo (b,f) thiepin-10-yl)-4-(2-(1,3-dioxan-2-yl) ethyl)piperazine, which is also tested as the methanesulfonate (compound C).

[15] = test system: cataleptogenic effect of perphenazine in rats; assay: Potentiation of the cataleptogenic effect of perphenazine in rats; type: in vivo; details: 50 mg/kg, oral
Procedure: A further compound of the invention is 1-(2-chloro-7-fluoro-10, 11-dihydrodibenzo (b,f) thiepin-10-yl)-4-(2-(1,3-dioxolan-2-yl)ethyl)piperazine, which also was tested as the methanesulfonate (compound B). This compound and the following ones were likewise administered orally, and the data is calculated per bases.
as §1

T1 sequence (P61169 whole entry): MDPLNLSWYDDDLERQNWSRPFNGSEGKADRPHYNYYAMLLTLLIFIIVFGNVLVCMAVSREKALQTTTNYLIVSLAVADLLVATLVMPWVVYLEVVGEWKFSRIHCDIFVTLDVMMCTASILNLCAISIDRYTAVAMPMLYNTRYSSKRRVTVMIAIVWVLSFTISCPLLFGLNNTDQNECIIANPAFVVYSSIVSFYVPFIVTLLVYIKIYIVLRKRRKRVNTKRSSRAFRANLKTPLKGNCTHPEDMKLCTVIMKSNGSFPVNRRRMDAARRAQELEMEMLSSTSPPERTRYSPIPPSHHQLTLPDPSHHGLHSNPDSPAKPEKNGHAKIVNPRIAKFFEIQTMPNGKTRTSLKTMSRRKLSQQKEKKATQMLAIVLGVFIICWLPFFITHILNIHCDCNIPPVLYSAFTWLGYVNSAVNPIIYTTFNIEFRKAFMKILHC

| SMILES | TD50 [1] [mg/kg] | cataleptic activity (rats) | dopamine level, tuberculum olfactorium [3] | effect on apomorphine-elicited agitation [4] | effect on apomorphine-elicited stereotypes [4] | dopamine level, striatum [11] | solubility in water (Solubility in water; monomethanesulfonate) | solubility in water (Solubility in water; neutral maleate) | increase of homovanillic acid level in striatum ([8]; rat, 80 mg/kg, 3 h, oral) | pharmacological profile compared with compound A [13] | increase of homovanillic acid level in striatum ([8]; rat, 20 mg/kg, 3 h) [%] | times less active than compound A, inhibition of spontaneous locomotor activity [12] | antiapomorphine effect [4] | potentiation of the cataleptogenic effect of perphenazine [15] | LD50 (in vivo; LD50, mice, per base) [mg/kg] | also measured |
| --- | --- | --- | --- | --- | --- | --- | --- | --- | --- | --- | --- | --- | --- | --- | --- | --- |
| NC(=O)CCN1CCN(C2Cc3cc(Cl)ccc3Sc3cc(F)ccc32)CC1 (stereo not shown) [Compound A] | 2 | lacks cataleptic activity | does not significantly affect the dopamine levels | significantly inhibits the agitation | does not affect the apomorphine-elicited stereotypes | does not significantly affect the dopamine levels | excellently water-soluble | poorly soluble in water | – | – | – | – | – | – | – | cataleptic activity (general statement) (rats; compounds of the invention, in words): noncataleptic; ED50 ([2]; Mus musculus, po, read-out: medium effective dose PD50, apomorphine-induced climbing behavior): 2.9 mg/kg; minimal effective dose ([5]; Canis lupus familiaris, oral, by 4 h after the administration, read-out: threshold activity dose, inhibition of apomorphine emesis): 2 mg/kg; inhibition of apomorphine emesis, duration ([5]; within 24 h): within 24 h the effect disappears; level of homovanillic acid, tuberculum olfactorium [6]: intensively increases; minimal effective dose ([6]; oral, read-out: threshold dose significantly increasing homovanillic acid concentration, tuberculum olfactorium): 2 mg/kg; TD50 [7]: 19.5 mg/kg; minimal effective dose ([8]; Rattus norvegicus, po, 3 h, read-out: threshold dose significantly increasing homovanillic acid concentration, corpus striatum): 5 mg/kg; level of homovanillic acid, corpus striatum ([8]; rat, 3 h after the administration): intensively increases; LD50 [9]: 654 mg/kg; IC50 [10]: 49.7 nM; LD50 on longer evaluation of the toxicity test (mice): lower LD50 values; ED50 ([12]; Mus musculus, po, read-out: medium active dose D50, inhibition of spontaneous locomotor activity): 1.05 mg/kg; LD50 at 48 h (in vivo; LD50, female mice, per base): 316 mg/kg; LD50 at 48 h (in vivo; LD50, male mice, per base): 336 mg/kg |
| NC(CCN1CCN(C2Cc3cc(Cl)ccc3Sc3cc(F)ccc32)CC1)=NO (stereo not shown) [Compound D] | – | – | – | – | – | – | – | – | more than 300% | approximately comparable | – | – | – | – | – | ED50 (motility of mice): 50 mg/kg; LD50 (in vivo): 320 mg/kg |
| CN1CCN(C2=Nc3cc(Cl)ccc3Nc3ccccc32)CC1 [clozapine, 8-chloro-11-(4-methylpiperazine)-5H-dibenzo (b,e)-(1,4)diazepine, reference compound] | – | behaves similarly | slightly decreases dopamine levels | effects neither agitation nor stereotypes | effects neither agitation nor stereotypes | slightly decreases dopamine levels | – | – | – | – | 200 | approx. 4 times | – | – | – | – |
| Fc1ccc2c(c1)Sc1ccc(Cl)cc1CC2N1CCN(CCC2OCCCO2)CC1 (stereo not shown) [Compound C, 1-(2-chloro-7-fluoro-10, 11-dihydrodibenzo (b,f)thiepin-10-yl)-4-(2-(1,3-dioxan-2-yl)ethyl)piperazine] | 2.86 | no cataleptic effect | – | – | – | the dopamine level is not affected | excellently water-soluble | poorly soluble in water | – | approximately comparable | 400 | – | does not reveal any antiapomorphine effect | only mildly potentiates the cataleptogenic effect of perphenazine | > 500 | LD50 [14]: 77.6 mg/kg; affinity to dopamine receptors in striatum, release of 3H spiperone ([10]; striatum, in words, compared with clozapine): approximately the same as with clozapine; solubility in water (Solubility in water; neutral maleate, listed as Example 4): only very slightly soluble in water |
| Fc1ccc2c(c1)Sc1ccc(Cl)cc1CC2N1CCN(CCC2OCCO2)CC1 (stereo not shown) [Compound B, 1-(2-chloro-7-fluoro-10, 11-dihydrodibenzo (b,f)thiepin-10-yl)-4-(2-(1,3-dioxolan-2-yl)ethyl)piperazine] | 3.5 | no cataleptic effect | – | – | – | – | readily water-soluble | slightly soluble in water | 504% | approximately comparable | – | – | only a slight indication of antiapomorphine effect | only mildly potentiates the cataleptogenic effect of perphenazine | 350 | lowering of dopamine level in striatum ([11]; 80 mg/kg, 3 h): 25%; solubility in water (Solubility in water; monomethanesulfonate, listed as Example 3): excellently water-soluble; solubility (Solubility in water; water, monomethanesulfonate, aqueous solution, read-out: concentration of aqueous solutions provided): > 100 mg/mL |
| CN(C)CCCN1c2ccccc2Sc2ccc(Cl)cc21 [chlorpromazine, reference compound] | – | – | – | – | – | – | – | – | – | – | – | 5 times | – | – | – | activity relative to compound A, climbing behavior ([2]; mice, % of activity of compound A): approx. 50% |
